From patent US6465457B1 (priority 1991, dated 2002)

Experiments:
Type in all cases: in vivo
[1] = test system: Erysiphe graminis tritici (Wheat); experiment: Foliar fungal disease test on plants: Erysiphe graminis tritici (Wheat); settings: 100 ppm a.i. foliar spray or root drench (approx. 40 ppm in dry soil); plants inoculated 24 hours before treatment
Septoria nodorum (Wheat) = experiment: Foliar fungal disease test on plants: Septoria nodorum (Wheat); settings: 100 ppm a.i. foliar spray or root drench (approx. 40 ppm in dry soil), one or two days before inoculation
[2] = test system: Puccinia recondita (Wheat); experiment: Foliar fungal disease test on plants: Puccinia recondita (Wheat); settings: 100 ppm a.i. foliar spray or root drench; plants inoculated with Puccinia recondita 48 hours before treatment
[3] = test system: Plasmopara viticola (Vines); experiment: Foliar fungal disease test on plants: Plasmopara viticola (Vines); settings: 100 ppm a.i. foliar spray or root drench (approx. 40 ppm in dry soil), one or two days before inoculation
[4] = test system: Phytophthora infestans (Tomatoes); settings: 100 ppm a.i. foliar spray or root drench (approx. 40 ppm in dry soil), one or two days before inoculation
[5] = test system: Pyricularia oryzae (Rice); settings: 100 ppm a.i. foliar spray or root drench (approx. 40 ppm in dry soil), one or two days before inoculation
[6] = test system: Venturia inaequalis (Apples); experiment: Foliar fungal disease test on plants: Venturia inaequalis (Apples); settings: 100 ppm a.i. foliar spray or root drench (approx. 40 ppm in dry soil), one or two days before inoculation
[7] = test system: Thanatephorus cucumeries (Rice); experiment: Foliar fungal disease test on plants: Thanatephorus cucumeries (Rice); settings: 100 ppm a.i. foliar spray or root drench (approx. 40 ppm in dry soil), one or two days before inoculation

Structure (SMILES)	POCO (Percentage of Control) disease level, Erysiphe graminis tritici (Wheat) [1]	POCO (Percentage of Control) disease level, Septoria nodorum (Wheat) (Septoria nodorum (Wheat))	POCO (Percentage of Control) disease level, Puccinia recondita (Wheat) [2]	POCO (Percentage of Control) disease level, Plasmopara viticola (Vines) [3]	POCO (Percentage of Control) disease level, Phytophthora infestans (Tomatoes) [4]	POCO (Percentage of Control) disease level, Pyricularia oryzae (Rice) [5]	POCO (Percentage of Control) disease level, Venturia inaequalis (Apples) [6]	POCO (Percentage of Control) disease level, Thanatephorus cucumeries (Rice) [7]
COC=C(C(=O)OC)c1ccccc1COC(=O)N(Cc1ccccc1)c1cccc(F)c1 [8 (97)]	90 (90 and 94 = 60.1-100% disease present)	90 (90 and 94 = 60.1-100% disease present)	90+ (90 and 94 = 60.1-100% disease present)	0 (0 = 0% disease present)	90 (90 and 94 = 60.1-100% disease present)	30 (30 = 20.1-30% disease present)	30 (30 = 20.1-30% disease present)	90 (90 and 94 = 60.1-100% disease present)
COC=C(C(=O)OC)c1ccccc1COC(=O)N(C)c1cccc(SC)c1 [10 (2)]	0 (0 = 0% disease present)	0 (0 = 0% disease present)	0+ (0 = 0% disease present)	0 (0 = 0% disease present)	20 (20 and 24 = 10.1-20% disease present)	0 (0 = 0% disease present)	0 (0 = 0% disease present)	20 (20 and 24 = 10.1-20% disease present)
COC=C(C(=O)OC)c1ccccc1COC(=O)Nc1ccccc1Cl [12 (1)]	0 (0 = 0% disease present)	10 (10 = 5.1-10% disease present)	10+ (10 = 5.1-10% disease present)	0 (0 = 0% disease present)	30 (30 = 20.1-30% disease present)	5 (5 = 3.1-5% disease present)	0 (0 = 0% disease present)	30 (30 = 20.1-30% disease present)
COC=C(C(=O)OC)c1ccccc1COC(=O)N(C)c1ccccc1Cl [12 (2)]	0 (0 = 0% disease present)	3 (3 = 1.1-3% disease present)	30+ (30 = 20.1-30% disease present)	0 (0 = 0% disease present)	5 (5 = 3.1-5% disease present)	10 (10 = 5.1-10% disease present)	0 (0 = 0% disease present)	0 (0 = 0% disease present)
COC=C(C(=O)OC)c1ccccc1COC(=O)N(C(C)=O)c1ccccc1Cl [12 (99)]	30 (30 = 20.1-30% disease present)	10 (10 = 5.1-10% disease present)	30+ (30 = 20.1-30% disease present)	0 (0 = 0% disease present)	90 (90 and 94 = 60.1-100% disease present)	10 (10 = 5.1-10% disease present)	5 (5 = 3.1-5% disease present)	90 (90 and 94 = 60.1-100% disease present)
COC=C(C(=O)OC)c1ccccc1COC(=O)N(C)c1ccc(F)cc1 [13 (2)]	0 (0 = 0% disease present)	0 (0 = 0% disease present)	0+ (0 = 0% disease present)	0 (0 = 0% disease present)	0 (0 = 0% disease present)	0 (0 = 0% disease present)	0 (0 = 0% disease present)	0 (0 = 0% disease present)
CCN(C(=O)OCc1ccccc1C(=COC)C(=O)OC)c1ccc(F)cc1 [13 (3)]	0 (0 = 0% disease present)	0 (0 = 0% disease present)	0+ (0 = 0% disease present)	0 (0 = 0% disease present)	0 (0 = 0% disease present)	0 (0 = 0% disease present)	0 (0 = 0% disease present)	0 (0 = 0% disease present)
COC=C(C(=O)OC)c1ccccc1COC(=O)Nc1ccccc1OC [16 (1)]	90 (90 and 94 = 60.1-100% disease present)	90 (90 and 94 = 60.1-100% disease present)	90+ (90 and 94 = 60.1-100% disease present)	0 (0 = 0% disease present)	90 (90 and 94 = 60.1-100% disease present)	20 (20 and 24 = 10.1-20% disease present)	60 (60 = 30.1-60% disease present)	90 (90 and 94 = 60.1-100% disease present)
COC=C(C(=O)OC)c1ccccc1COC(=O)N(C)c1ccccc1OC [16 (2)]	0 (0 = 0% disease present)	5 (5 = 3.1-5% disease present)	10+ (10 = 5.1-10% disease present)	0 (0 = 0% disease present)	20 (20 and 24 = 10.1-20% disease present)	0 (0 = 0% disease present)	1 (1 = 0.1-1% disease present)	5 (5 = 3.1-5% disease present)
C#CCN(C(=O)OCc1ccccc1C(=COC)C(=O)OC)c1ccccc1OC [16 (15)]	0 (0 = 0% disease present)	10 (10 = 5.1-10% disease present)	60+ (60 = 30.1-60% disease present)	0 (0 = 0% disease present)	5 (5 = 3.1-5% disease present)	0 (0 = 0% disease present)	1 (1 = 0.1-1% disease present)	0 (0 = 0% disease present)
COC=C(C(=O)OC)c1ccccc1COC(=O)Nc1ccccc1C(F)(F)F [18 (1)]	90 (90 and 94 = 60.1-100% disease present)	90 (90 and 94 = 60.1-100% disease present)	90+ (90 and 94 = 60.1-100% disease present)	0 (0 = 0% disease present)	90 (90 and 94 = 60.1-100% disease present)	60 (60 = 30.1-60% disease present)	3 (3 = 1.1-3% disease present)	90 (90 and 94 = 60.1-100% disease present)
COC=C(C(=O)OC)c1ccccc1COC(=O)N(C)c1ccccc1C(F)(F)F [18 (2)]	60 (60 = 30.1-60% disease present)	90 (90 and 94 = 60.1-100% disease present)	90+ (90 and 94 = 60.1-100% disease present)	3 (3 = 1.1-3% disease present)	90 (90 and 94 = 60.1-100% disease present)	60 (60 = 30.1-60% disease present)	3 (3 = 1.1-3% disease present)	60 (60 = 30.1-60% disease present)
C=CCNC(=O)OCc1ccccc1C(=COC)C(=O)OC [20 (1)]	20 (20 and 24 = 10.1-20% disease present)	90 (90 and 94 = 60.1-100% disease present)	3+ (3 = 1.1-3% disease present)	90 (90 and 94 = 60.1-100% disease present)	60 (60 = 30.1-60% disease present)	20 (20 and 24 = 10.1-20% disease present)	5 (5 = 3.1-5% disease present)	90 (90 and 94 = 60.1-100% disease present)
